# Columns and labels:
# spring barley [1] = test: Growth height of spring barley, leaf treatment, Example 10; format: in vivo, spring barley ("Union" variety)
# Description: (§1) Spring wheat ("Opal" variety) and spring barley ("Union" variety) were grown under greenhouse conditions in plastic dishes 11.5 cm in diameter, in a peat substrate provided with sufficient nutrients. For the soil (preemergence) treatment, the active ingredients were poured, at two application rates, as aqueous formulations onto the surface of the substrate after sowing.
# (§2) Leaf treatment was effected by spraying the plants at a growth height of 10 cm with aqueous formulations of the active ingredients at two application rates.
# (§3) The plant height was measured at the end of the experiment. The figures obtained show the shortening effect of the active ingredients under investigation. The prior art compound β-chloroethylphosphonic acid (Ethephon, German Printed Application DAS No. 1,667,968) was used for comparison purposes.
# spring wheat [2] = test: Growth height of spring wheat, soil treatment, Example 10; format: in vivo, spring wheat ("Opal" variety)
# Description: as §1, §3
# spring barley [3] = test: Growth height of spring barley, soil treatment, Example 10; format: in vivo, spring barley ("Union" variety)
# Description: as §1, §3
# spring wheat [4] = test: Growth height of spring wheat, leaf treatment, Example 10; format: in vivo, spring wheat ("Opal" variety)
# Description: as §1, §2, §3
# spring rye [5] = test: Growth height of spring rye, leaf treatment, Example 11; format: in vivo, spring rye ("Petkuser" variety)
# Description: (§4) The test plants--spring wheat ("Opal" variety), spring barley ("Union" variety) and spring rye ("Petkuser" variety)--were grown under greenhouse conditions in plastic dishes 11.5 cm in diameter, in a peat substrate provided with sufficient nutrients.
# (§5) Leaf treatment was effected by spraying the plants at a growth height of 11 cm with aqueous formulations of the active ingredients, at three application rates.
# (§6) The shortening effect caused by the compounds was shown by measurements of the height of the plants at the end of the experiment.
# (§7) The prior art compound N,N,N-trimethyl-N-β-chloroethylammonium chloride (CCC, German Printed Application DAS No. 1,294,734) was used for comparison purposes.
# Sinapis alba = test: Herbicidal action, pre- and postemergence application in the greenhouse; format: in vivo; conditions: post-emergence, 3.0 kg/ha POST, read-out: % damage
# Description: (§8) Plastic flowerpots having a volume of 300 cm^3 were filled with a sandy loam and the test plants placed therein (either as seed, as vegetatively reproduced species, or as potted plants, e.g., vines). For preemergence treatment, the active ingredients were suspended or emulsified in water as vehicle and sprayed onto the surface of the soil immediately after sowing by means of finely distributing nozzles. The potted vines were treated by spraying them with the correspondingly diluted liquor. For postemergence treatment, the agents were, as stated above, sprayed in water onto the leaves of the test plants, some liquor also falling onto the soil. In some special cases, solid active ingredients were first dissolved in dimethylformamide and then applied in a total liquor amount of 400 liters of water per hectare. For the postemergence treatment, the plants were first grown to a height of from 3 to 10 cm before being treated. With grasses, the first growth was cut, and the new growth treated 2 to 3 days after cutting. The temperature requirements of the plants were taken into account by placing them in cooler or warmer sections of the greenhouse. The experiments were run for from 4 to 6 weeks, during which time the plants were tended and their reaction to the various treatments was assessed.
# (§9) The application rates are given in kg/ha of active ingredient, regardless of the method of application and the amount of water used.
# (§10) A 0 to 100 scale was used for the evaluation, 0 denoting normal emergence or no damage (or no inhibition), and 100 denoting non-emergence or complete destruction of the plants. A distinction should be made in the influence on growth between desired changes without any appreciable disadvantageous phytotoxic effects (e.g., purely growth-regulating effects) and those of a phytotoxic herbicical character.
# potted vines = test: Tolerance by potted vines in greenhouse; spray application; format: in vivo
# Description: as §8, §9, §10
# spring barley [6] = test: Growth height of spring barley, soil (preemergence) treatment, Example 9; format: in vivo, spring barley ("Union" variety); conditions: 30 days
# Description: (§11) Spring wheat of the "Opal" variety and spring barley of the "Union" variety were grown in the winter half of the year under greenhouse conditions in plastic dishes 11.5 cm in diameter, in a peat substrate provided with sufficient nutrients.
# (§12) The reductions in growth height caused by the treatment were determined by measuring the height of the plants at the end of the experiment after 30 days' growth, and comparing it with that of untreated plants.
# spring rye [7] = test: Growth height of spring rye, soil treatment, Example 11; format: in vivo, spring rye ("Petkuser" variety)
# Description: as §4
# (§13) The soil (preemergence) treatment was effected after sowing by pouring aqueous formulations of the active ingredients, at four application rates, onto the surface of the substrate.
# as §6, §7
# spring wheat [8] = test: Growth height of spring wheat, soil (preemergence) treatment, Example 9; format: in vivo, spring wheat ("Opal" variety); conditions: 30 days
# Description: as §11, §12
# spring wheat [9] = test: Growth height of spring wheat, leaf treatment, Example 11; format: in vivo, spring wheat ("Opal" variety)
# Description: as §4, §5, §6, §7
# spring barley [10] = test: Growth height of spring barley, leaf treatment, Example 11; format: in vivo, spring barley ("Union" variety)
# Description: as §4, §5, §6, §7
# spring barley [11] = test: Growth height of spring barley, soil treatment, Example 11; format: in vivo, spring barley ("Union" variety)
# Description: as §4, §13, §6, §7
smiles,measurement,setting,value
"O=P(O)(O)CCCl [Ethephon, β-chloroethylphosphonic acid, reference compound]",Plant height,spring barley [1]; 1.5 kg/ha,27.0 cm
same,"Plant height, % of untreated control",spring barley [1]; 1.5 kg/ha,96.4%
same,Plant height,spring barley [1]; 6.0 kg/ha,24.5 cm
same,"Plant height, % of untreated control",spring barley [1]; 6.0 kg/ha,87.5%
same,Plant height,spring wheat [2]; 3 kg/ha,29.0 cm
same,"Plant height, % of untreated control",spring wheat [2]; 3 kg/ha,90.6%
same,Plant height,spring wheat [2]; 12 kg/ha,25.0 cm
same,"Plant height, % of untreated control",spring wheat [2]; 12 kg/ha,78.1%
same,Plant height,spring barley [3]; 3 kg/ha,32.0 cm
same,"Plant height, % of untreated control",spring barley [3]; 3 kg/ha,93.3%
same,Plant height,spring barley [3]; 12 kg/ha,27.5 cm
same,"Plant height, % of untreated control",spring barley [3]; 12 kg/ha,80.2%
same,Plant height,spring wheat [4]; 1.5 kg/ha,30.0 cm
same,"Plant height, % of untreated control",spring wheat [4]; 1.5 kg/ha,91.5%
same,Plant height,spring wheat [4]; 6.0 kg/ha,25.0 cm
same,"Plant height, % of untreated control",spring wheat [4]; 6.0 kg/ha,76.2%
Clc1ccc(NC2C(Cl)C3CC2C2N=NC32)cc1 (centres unmarked) [drawing 423],Plant height,spring rye [5]; 0.75 kg/ha,25.5 cm
same,"Plant height, % of untreated control",spring rye [5]; 0.75 kg/ha,89.5%
same,Plant height,spring rye [5]; 1.50 kg/ha,24.5 cm
same,"Plant height, % of untreated control",spring rye [5]; 1.50 kg/ha,86.0%
same,Plant height,spring rye [5]; 3.00 kg/ha,24.5 cm
same,"Plant height, % of untreated control",spring rye [5]; 3.00 kg/ha,86.0%
BrC1=CC2CC1C1N=NC21 (centres unmarked),pest or weed control at 3000 g/ha,Sinapis alba,100%
BrC1C(Br)C2CC1C1N=NC21 (centres unmarked) [drawing 427],Potted vines - leaf damage,potted vines; 4.0 and 8.0 kg/ha,none
same,Change in shoot growth,potted vines; 4.0 kg/ha,14.7 cm
same,Change in shoot growth,potted vines; 8.0 kg/ha,13.3 cm
"C[N+](C)(C)CCCl.[Cl-] [CCC, N,N,N-trimethyl-N-β-chloroethylammonium chloride, reference compound]",Plant height,spring barley [6]; 3 kg/ha,27.5 cm
same,"Plant height, % of untreated control",spring barley [6]; 3 kg/ha,85.1%
same,Plant height,spring barley [6]; 12 kg/ha,24.5 cm
same,"Plant height, % of untreated control",spring barley [6]; 12 kg/ha,75.9%
same,Plant height,spring rye [5]; 0.75 kg/ha,27.0 cm
same,"Plant height, % of untreated control",spring rye [5]; 0.75 kg/ha,94.7%
same,Plant height,spring rye [5]; 1.50 kg/ha,25.5 cm
same,"Plant height, % of untreated control",spring rye [5]; 1.50 kg/ha,89.5%
same,Plant height,spring rye [5]; 3.00 kg/ha,25.5 cm
same,"Plant height, % of untreated control",spring rye [5]; 3.00 kg/ha,89.5%
same,Plant height,spring rye [7]; 0.75 kg/ha,31.5 cm
same,"Plant height, % of untreated control",spring rye [7]; 0.75 kg/ha,97.5%
same,Plant height,spring rye [7]; 1.50 kg/ha,30.5 cm
same,"Plant height, % of untreated control",spring rye [7]; 1.50 kg/ha,94.4%
same,Plant height,spring rye [7]; 3.00 kg/ha,30.0 cm
same,"Plant height, % of untreated control",spring rye [7]; 3.00 kg/ha,92.9%
same,Plant height,spring rye [7]; 6.00 kg/ha,28.5 cm
same,"Plant height, % of untreated control",spring rye [7]; 6.00 kg/ha,88.2%
same,Plant height,spring wheat [8]; 3 kg/ha,21.5 cm
same,"Plant height, % of untreated control",spring wheat [8]; 3 kg/ha,71.7%
same,Plant height,spring wheat [8]; 12 kg/ha,19.5 cm
same,"Plant height, % of untreated control",spring wheat [8]; 12 kg/ha,65.0%
same,Plant height,spring wheat [9]; 0.75 kg/ha,27.5 cm
same,"Plant height, % of untreated control",spring wheat [9]; 0.75 kg/ha,89.3%
same,Plant height,spring wheat [9]; 1.50 kg/ha,26.0 cm
same,"Plant height, % of untreated control",spring wheat [9]; 1.50 kg/ha,84.4%
same,Plant height,spring wheat [9]; 3.00 kg/ha,25.0 cm
same,"Plant height, % of untreated control",spring wheat [9]; 3.00 kg/ha,81.2%
same,Plant height,spring barley [10]; 0.75 kg/ha,27.5 cm
same,"Plant height, % of untreated control",spring barley [10]; 0.75 kg/ha,98.4%
same,Plant height,spring barley [10]; 1.50 kg/ha,27.0 cm
same,"Plant height, % of untreated control",spring barley [10]; 1.50 kg/ha,97.1%
same,Plant height,spring barley [10]; 3.00 kg/ha,27.0 cm
same,"Plant height, % of untreated control",spring barley [10]; 3.00 kg/ha,97.1%
same,Plant height,spring barley [11]; 0.75 kg/ha,29.5 cm
same,"Plant height, % of untreated control",spring barley [11]; 0.75 kg/ha,89.9%
same,Plant height,spring barley [11]; 1.50 kg/ha,29.5 cm
same,"Plant height, % of untreated control",spring barley [11]; 1.50 kg/ha,89.9%
same,Plant height,spring barley [11]; 3.00 kg/ha,27.5 cm
same,"Plant height, % of untreated control",spring barley [11]; 3.00 kg/ha,83.8%
same,Plant height,spring barley [11]; 6.00 kg/ha,26.0 cm
same,"Plant height, % of untreated control",spring barley [11]; 6.00 kg/ha,79.3%
